Reference: US20220160703A1, “TUMOR-SELECTIVE COMBINATION THERAPY” (The Board of Regents of The University of Texas System, priority 2019, published 2022)

Tested on: MC38 tumor
Test: MC38 subcutaneous syngeneic tumor model
Assay type: in vivo, mice
Protocol: (FIG. 1A) NQO1 positive tumor cell lines MC38, TC-1 and Ag104Ld and NQO1 negative cell lines Panc02 and B16 grown in 48-well plates were treated with β-lap (0-8 μM) for a 3 hr followed by washing and replacing medium. Cell viability was determined by Sulforhodamine B (SRB) Assay 4 days later. […] (FIG. 1C) MC38 cells with CRISPR-based NQO1 Knockout (MC38 NQO1KO #5) planted in 96-well plates were exposed to β-lap for 3 hr and cell survival was assessed 48 hr later. […] (FIG. 1E) MC38 cells were exposed to a lethal dose of β-lap (4 μM) for indicated times, then stained with 7-AAD and Annexin V followed by flow cytometry analysis. […] (FIG. 1H) MC38 and B16 NQO1 #1 cells were exposed to β-lap for a 3 hr. Catalase (1000 U/ml) was added and cell survival was assessed 48 hr later. (FIG. 1I) C57BL/6 mice (n=5/group) were transplanted with MC38 cells and treated with β-lap (0.03 mg, 0.1 mg or 0.3 mg, intratumorally; or 25 mg/kg, i.v.) every other day for four times. (FIG. 1J) C57BL/6 mice were transplanted with MC38 cells (NQO1 WT or KO, n=5/group) and treated with β-lap (0.3 mg, i.t.) every other day for four times. Tumor growth was monitored twice a week.
(FIG. 2A) MC38 cells were subcutaneously transplanted into C57BL/6 WT (n=5-6/group) and Rag1 KO mice (n=5/group), respectively. Tumor bearing mice were treated with β-lap (0.3 mg, i.t.) every other day for four times. […] (FIG. 2B) MC38 tumor bearing C57BL/6 mice (n=5/group) were treated with β-lap (0.3 mg, i.t.) every other day for four times. For CD8^+ T cell depletion, 200 μg of anti-CD8 antibodies were intraperitoneally injected four times at three days interval during the treatment. (FIG. 2C) TC-1 tumor bearing C57BL/6 mice (n=4-5/group) were treated with β-lap (0.1 mg, i.t.) for four times with or without anti-CD8 antibodies. […] (FIG. 2E) 2×10^6 A549 cells were subcutaneously injected into C57BL/6 Rag1^−/− mice (n=5/group for vehicle and β-lap; n=7/group for vehicle+OT-1 and β-lap+OT-1). 30 days later, the mice were i.v. adoptively transfected with 2×10^6 lymph node cells from OT-1 transgenic mice. On the following day, tumor-bearing mice were intratumorally treated with β-lap (0.2 mg) every other day for 4 times. (FIG. 2F) A549 cells were subcutaneously injected into NSG-SGM3 (n=5/group) or NSG-SGM3 harboring human CD34^+ hematopoietic stem cells (n=5/group for Hu-NSG vehicle; n=6/group for Hu-NSG β-lap). Tumor bearing mice were treated with β-lap (0.2 mg, i.t.) every other day for four times. Tumor growth was measured twice a week.
(FIG. 6A) Treatment schema for local β-lap treatment based combinative therapy in FIG. 6B and FIG. 6C. (FIGS. 6B-C) MC38 tumor cells were s.c. inoculated into the flank of C57BL/6 mice (n=5/group). Mice bearing small tumor (about 50 mm^3, B) or advanced tumor (about 150-200 mm^3, FIG. 6C) were locally treated with β-lap (0.3 mg, i.t.) for four times with or without anti-PD-L1 based checkpoint blockage.

## CC1(C)CCC2=C(O1)c1ccccc1C(=O)C2=O [β-lap, β-lapachone]
3×10^6 MC38 cells, 30 days after complete rejection
  re-challenge of cured mice: rejected the re-challenged tumors
Rag1 KO C57BL/6 mice, 0.3 mg i.t. four times
  therapeutic activity in immune-deficient mice: lost therapeutic activity
Large established tumors (about 150-200 mm^3), β-lap 15 mg/kg i.t. four times, anti-PD-L1 100 μg i.p. three times
  TGI: 59.36%
Local (intratumoral) β-lap 1.5 mg/kg mg, every other day 4 doses
  Tumor growth inhibition rate (TGI): 11.8%
Local (intratumoral) β-lap 5 mg/kg, every other day 4 doses
  Tumor growth inhibition rate (TGI): 69.4%
Local (intratumoral) β-lap 15 mg/kg mg, every other day 4 doses
  Tumor growth inhibition rate (TGI): 89.3%
Systemic β-lap 25 mg/kg i.v., every other day four times
  Tumor growth inhibition rate (TGI): 62.5%
β-lap 0.3 mg i.t. + anti-CD8 200 μg
  antitumor effect with CD8+ T cell depletion: abolished β-lap's antitumor effect
β-lap 0.3 mg i.t. + anti-CSF1R Ab 100 μg i.t.
  response with macrophage depletion: did not affect the response
β-lap 0.3 mg i.t. + anti-IFNAR1 150 μg i.t.
  therapeutic effect with type I IFN blockade: significantly diminished the therapeutic effect
β-lap 0.3 mg i.t. four times
  therapeutic effect in Batf3−/− mice: no therapeutic effect
  tumor regression in Myd88−/− mice: disappeared
